Experiment [1] concerns TEL-BaF3-FLT3-D835Y (stably expressing FLT3 D835Y mutant activated kinase). Description: Cell proliferation, Cell Titer-Glo, TEL-BaF3-FLT3-D835Y. It is filed as cell-based. The conditions noted are these: Mus musculus; incubated for 72 hours; read-out: TEL-BaF3-FLT3-D835Y IC50. On the procedure:
(§1) The above cell lines were constructed by our laboratory.
(§2) The number of viable cells was determined by quantification of ATP in living cells using the Cell Titer-Glo® (Promega, USA) chemiluminescence cell viability assay kit.

The subject of experiment [2] is TEL-BaF3-BMX (stably expressing BMX kinase). Description: Cell proliferation, Cell Titer-Glo, TEL-BaF3-BMX. It is filed as cell-based. The conditions noted are these: Mus musculus; incubated for 72 hours. The method, boiled down:
(§3)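 Cells from the in-house-constructed BaF3 lines were grown with compound. Viability was then scored by chemiluminescent detection of cellular ATP.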

Experiment [3] concerns TEL-JAK1-BaF3 (stably expressing JAK1 kinase). Put plainly: Cell proliferation, Cell Titer-Glo, TEL-JAK1-BaF3. It is filed as cell-based. The conditions noted are these: Mus musculus; incubated for 72 hours. The protocol: as §1, §2
The subject of experiment [4] is TEL-cKIT-BaF3 (stably expressing cKIT kinase). Put plainly: Cell proliferation, Cell Titer-Glo, TEL-cKIT-BaF3. It is filed as cell-based. To be noted: Mus musculus; incubated for 72 hours. The protocol: as §1, §2
Background: In ATP-based viability assays light output follows the ATP content of the culture.

The subject of experiment [5] is U937 (expressing wild-type FLT3 gene). Put plainly: Cell proliferation, Cell Titer-Glo, U937. It is filed as cell-based, human. To be noted: Homo sapiens, U-937, 72 h, incubated for 72 hours; read-out: U937 IC50. The method, boiled down: (§4)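 Read-out: luminescence from ATP in live cells (CellTiter-Glo), taken as viable cell number. Cell lines were built in-house.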

In experiment [6] the test system is MOLM-13 (expressing FLT3/ITD mutant gene and wild-type FLT3 gene). Put plainly: Cell proliferation, Cell Titer-Glo, MOLM-13. It is filed as cell-based. The conditions noted are these: Homo sapiens, MOLM-13; incubated for 72 hours; read-out: MOLM-13 IC50. The method, boiled down: as §4
Experiment [7] deals with TEL-BaF3-FLT3/ITD (stably expressing FLT3/ITD mutant activated kinase). Description: Cell proliferation, Cell Titer-Glo, TEL-BaF3-FLT3/ITD. The conditions noted are these: Mus musculus, 72 h, incubated for 72 hours; read-out: TEL-BaF3-FLT3/ITD IC50. It is filed as cell-based, mouse. The method in brief: as §3
The subject of experiment [8] is TEL-BaF3-EGFR (stably expressing EGFR kinase). Description: Cell proliferation, Cell Titer-Glo, TEL-BaF3-EGFR. It is filed as cell-based. To be noted: Mus musculus; incubated for 72 hours. The protocol:
as §1, §2

For experiment [9], the system named is MOLM-14 (expressing FLT3/ITD mutant gene and wild-type FLT3 gene). Description: Cell proliferation, Cell Titer-Glo, MOLM-14. It is filed as cell-based. To be noted: Homo sapiens, MOLM-14; incubated for 72 hours; read-out: MOLM-14 IC50. On the procedure: as §1, §2
Experiment [10] has as its system MV4-11 (expressing FLT3/ITD mutant gene). Put plainly: Cell proliferation, Cell Titer-Glo, MV4-11. It is filed as cell-based. To be noted: Homo sapiens, MV4-11; incubated for 72 hours; read-out: MV4-11 IC50. The method, boiled down: as §4
The test system of another experiment is pro-B cell BaF3. Description: Cell proliferation, Cell Titer-Glo, BaF3. It is filed as cell-based. The conditions noted are these: Mus musculus, incubated for 72 hours. The method in brief: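 Chemiluminescent ATP detection (CellTiter-Glo) gave the number of viable cells, used as the measure of proliferation in these laboratory-made BaF3 lines.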
In experiment [11] the test system is TEL-BaF3-BLK (stably expressing BLK kinase). Description: Cell proliferation, Cell Titer-Glo, TEL-BaF3-BLK. To be noted: Mus musculus; incubated for 72 hours. It is filed as cell-based. The method, boiled down:
as §3

In the next experiment the target is BTK protein kinase (Homo sapiens (Human), UniProt Q06187). Description: In vitro inhibition activity (enzymatic activity), ADP-Glo, BTK. It is filed as biochemical. The conditions noted are these: ATP 10 μM. Background: In ADP-Glo the light output rises with the ADP produced.
Experiment [12] deals with TPR-MET-BaF3 (stably expressing MET kinase). Put plainly: Cell proliferation, Cell Titer-Glo, TPR-MET-BaF3. The conditions noted are these: Mus musculus; incubated for 72 hours. It is filed as cell-based. On the procedure:
as §1, §2

The structures appear in SMILES notation.

BTK protein kinase, sequence (Q06187 whole entry): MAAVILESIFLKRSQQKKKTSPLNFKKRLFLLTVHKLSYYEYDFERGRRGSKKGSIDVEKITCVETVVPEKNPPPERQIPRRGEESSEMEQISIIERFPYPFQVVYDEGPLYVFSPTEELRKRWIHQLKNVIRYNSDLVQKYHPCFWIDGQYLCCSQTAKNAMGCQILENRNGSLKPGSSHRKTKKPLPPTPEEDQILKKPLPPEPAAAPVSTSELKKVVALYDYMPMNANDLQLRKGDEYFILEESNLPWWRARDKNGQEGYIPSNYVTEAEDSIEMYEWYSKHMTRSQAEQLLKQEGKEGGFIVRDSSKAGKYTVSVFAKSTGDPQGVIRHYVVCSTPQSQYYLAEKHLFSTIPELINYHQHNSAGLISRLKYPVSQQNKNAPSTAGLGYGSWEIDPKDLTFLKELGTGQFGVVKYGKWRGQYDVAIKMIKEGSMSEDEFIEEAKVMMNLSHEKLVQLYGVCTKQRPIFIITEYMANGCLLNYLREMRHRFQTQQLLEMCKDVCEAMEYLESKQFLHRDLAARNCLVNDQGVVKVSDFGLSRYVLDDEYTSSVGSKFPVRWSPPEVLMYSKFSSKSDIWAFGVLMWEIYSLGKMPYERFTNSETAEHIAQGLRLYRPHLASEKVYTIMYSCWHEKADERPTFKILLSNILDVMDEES

For the compound `Nc1ncnc2c1c(-c1ccc(Oc3ccccc3)cc1)nn2[C@@H]1CCCN(C(=O)[C@H](N)Cc2c[nH]c3ccccc23)C1` [Compound 8, (R)-2-amino-1-((R)-3-(4-amino-(4-phenoxyphenyl)-1H-pyrazolo[3,4-d]pyrimidin-1-yl)piperidin-1-yl)-3-(1H-indol-3-yl)propan-1-one], the IC50 stood at 89 nM in experiment [1]; 550 nM in experiment [2]; 270 nM in experiment [3]; 750 nM in experiment [4]; 1000 nM in experiment [5]; 180 nM in [6]. Besides, the IC50 is 270 nM in [7]; 1400 nM in [8]; 310 nM in [9]; 270 nM in [10]; 620 nM in the experiment on pro-B cell BaF3; 560 nM in experiment [11]. Further, the IC50 on BTK protein kinase was found to be 254 nM.

In the case of `N#CCC(=O)N1CCC[C@@H](n2nc(-c3ccc(Oc4ccccc4)cc3)c3c(N)ncnc32)C1` [Compound 20], the IC50 is 150 nM in experiment [1]; 47 nM in [2]; greater than 10000 nM in [12]; greater than 10000 nM in experiment [3]; 3300 nM in experiment [4]; greater than 10000 nM in experiment [5]. Besides, the IC50 in [6] was 160 nM; in experiment [7] it was 120 nM; in experiment [8], 4700 nM; in experiment [9] it was 410 nM; in [10] it was 200 nM; in the experiment on pro-B cell BaF3, greater than 10000 nM. The compound further displayed an IC50 in [11] of 520 nM.

`Nc1ncnc2c1c(-c1ccc(Oc3ccccc3)cc1)nn2[C@@H]1CCCN(S(N)(=O)=O)C1` [Compound 4, (R)-3-(4-amino-(4-phenoxyphenyl)-1H-pyrazolo[3,4-d]pyrimidin-1-yl)piperidin-1-sulfonamide]: the IC50 in experiment [1] was 160 nM; in experiment [2] it was 820 nM; in [12], greater than 10000 nM; in experiment [3] it was greater than 10000 nM; in experiment [4], 4900 nM; in experiment [6] it was 230 nM. For the same compound, the IC50 in [8] was greater than 10000 nM; in experiment [9], 680 nM; in experiment [10] it was 300 nM; with pro-B cell BaF3 it was greater than 10000 nM; in experiment [11], 1400 nM.

For the compound `Nc1ncnc2c1c(-c1ccc(Oc3ccccc3)cc1)nn2[C@@H]1CCCN(C(=O)C(F)(F)F)C1` [Compound 2, (R)-1-(3-(4-amino-(4-phenoxyphenyl)-1H-pyrazolo[3,4-d]pyrimidin-1-yl)piperidin-1-yl)-2,2,2-trifluoroethanone], the IC50 in experiment [1] was 130 nM; in [2], 82 nM; in [12], 4700 nM; in experiment [3], 1400 nM; in [4], 1900 nM; in [5], greater than 10000 nM. Further, the IC50 in experiment [6] is 290 nM; in [7], 120 nM; in experiment [8], 6100 nM; in [9] it was 720 nM; in experiment [10] it was 300 nM; with pro-B cell BaF3, 2000 nM. This compound also yielded an IC50 in [11] of 630 nM.

In the case of `CC(O)C(=O)N1CCC[C@@H](n2nc(-c3ccc(Oc4ccccc4)cc3)c3c(N)ncnc32)C1` (stereo partly drawn) [Compound 23, 1-((R)-3-(4-amino-(4-phenoxyphenyl)-1H-pyrazolo[3,4-d]pyrimidin-1-yl)piperidin-1-yl)-2-hydroxylpropan-1-one], the IC50 was 430 nM in experiment [1]; 88 nM in [2]; greater than 10000 nM in experiment [12]; greater than 10000 nM in experiment [3]; 4800 nM in experiment [4]; 4300 nM in experiment [5]. The IC50 was 290 nM in [6]; 91 nM in experiment [7]; 6500 nM in [8]; 630 nM in [9]; 320 nM in experiment [10]; greater than 10000 nM in the experiment on pro-B cell BaF3. The IC50 in experiment [11] was 2800 nM; on BTK protein kinase it was 204 nM.

Regarding `CC[C@@H](C)[C@@H](N)C(=O)N1CCC[C@@H](n2nc(-c3ccc(Oc4ccccc4)cc3)c3c(N)ncnc32)C1` [Compound 25, (2R,3R)-2-amino-1-((R)-3-(4-amino-(4-phenoxyphenyl)-1H-pyrazolo[3,4-d]pyrimidin-1-yl)piperidin-1-yl)-3-methylpentan-1-one], the IC50 in experiment [1] was 180 nM; in [2] it was 510 nM; in experiment [12], 1700 nM; in experiment [3], 3300 nM; in experiment [4] it was 3100 nM; in experiment [5] it was 1900 nM. In addition, the IC50 in experiment [6] turned out to be 120 nM; in [7] it was 88 nM; in experiment [8] it was 890 nM; in [9], 190 nM; in experiment [10], 120 nM; in the experiment on pro-B cell BaF3, 1700 nM. Moreover, the figures for the IC50 (in experiment [11]; against BTK protein kinase) were 1100 nM and 216 nM, respectively.

As to `Nc1ncnc2c1c(-c1ccc(Oc3ccccc3)cc1)nn2[C@@H]1CCCN(C(=O)[C@H](N)Cc2ccc(O)cc2)C1` [Compound 10, (R)-2-amino-1-((R)-3-(4-amino-(4-phenoxyphenyl)-1H-pyrazolo[3,4-d]pyrimidin-1-yl)piperidin-1-yl)-3-(4-hydroxyphenyl)propan-1-one], the IC50 in [1] came out at 64 nM; in experiment [2], 840 nM; in experiment [12], 1400 nM; in experiment [3] it was 400 nM; in [4], 1100 nM; in experiment [5], 3400 nM. Also, the IC50 turned out to be 64 nM in [6]; 110 nM in experiment [7]; 3700 nM in experiment [8]; 110 nM in experiment [9]; 61 nM in experiment [10]; 1200 nM with pro-B cell BaF3. The IC50 in experiment [11] was determined as 1000 nM; against BTK protein kinase it was 128 nM.

For the compound `Nc1ncnc2c1c(-c1ccc(Oc3ccccc3)cc1)nn2[C@@H]1CCCN(C(=O)[C@H](N)Cc2ccccc2)C1` [Compound 26, (R)-2-amino-1-((R)-3-(4-amino-(4-phenoxyphenyl)-1H-pyrazolo[3,4-d]pyrimidin-1-yl)piperidin-1-yl)-3-phenylpropan-1-one], the IC50 in experiment [1] was 360 nM; in experiment [2] it was 1300 nM; in [12], 2000 nM; in experiment [3], 2000 nM; in experiment [4], 3500 nM; in [5] it was 2400 nM. Further, the IC50 in [6] amounted to 200 nM; in experiment [7], 160 nM; in experiment [8], 1300 nM; in [9], 290 nM; in [10] it was 280 nM; in the experiment with pro-B cell BaF3, 1500 nM. The IC50 was 2900 nM in experiment [11] and 98 nM at BTK protein kinase.

(Values after patent US10266535B2, “Inhibitor of FLT3 kinase and use thereof” (HEFEI INSTITUTES OF PHYSICAL SCIENCE, CHINESE ACADEMY OF …, priority 2015, dated 2019).)
